# Assay results published in patent US9061994B1, “Materials and methods useful to induce vacuolization, cell death, or a combination thereof” (The University of Toledo, priority 2011, dated 2015).
# Key:
# U251 glioblastoma cells [1] = assay: Effect of filipin, bafilomycin A1 or EHT 1864 on MIPP-induced vacuoles; type: cell-based, human; conditions: 10 μM MIPP with 12 μg/ml filipin, 0.1 μM bafilomycin A1 or 25 μM EHT 1864
# Protocol: To inhibit clathrin-independent endocytosis, U251 cells were washed twice with serum-free DMEM, then pretreated for 30 min with DMEM+0.5% BSA in the presence or absence of 12 μg/ml filipin. Following the pretreatment, MIPP was added to the dishes at a final concentration of 10 μM and phase-contrast images were acquired 100 min later. To inhibit the vacuolar-type H^+ ATPase, U251 cells were pretreated for 1 h with 0.1 μM bafilomycin A1 or an equivalent volume of DMSO. At the end of the hour, 10 μM MIPP, or an equivalent volume of DMSO, was added without a medium change. Phase-contrast images of the cells were acquired 1 h after the addition of MIPP. […] The percentage of vacuolated cells in the population was determined by scoring at least 100 cells in multiple phase-contrast photomicrographs for each condition. Cells containing three or more phase-lucent vacuoles with diameters ≧0.5 μm or >10 smaller vacuoles (0.1-0.5 μm) were scored as positive. For comparison, the effect of EHT 1864 on Ras-induced vacuolization was also determined. […] After 24 h, phase-contrast images were taken and the number of vacuolated cells was scored as described above.
# U251 glioblastoma cells [2] = assay: Cell cycle analysis by flow cytometry (DNA histograms); type: cell-based, human; conditions: 24 h, 3 μM (FIGS. 69A-69B)
# porcine tubulin = biological target: T1, porcine tubulin (Sus scrofa, UniProt P02550+P02554); assay: Cell-free fluorescence-based tubulin polymerization assay; type: biochemical; conditions: final concentration 3 μM (FIG. 61)
# T1 construct: purchased Cytoskeleton, Inc. BK011P
# U251 glioblastoma cells [3] = assay: Cell morphology / vacuolization by phase-contrast microscopy; type: cell-based, human; conditions: concentration not singled out ([…] and 10 μM or as in figure)
# U251 glioblastoma cells [4] = assay: Sulforhodamine B (SRB) growth inhibition assay; type: cell-based, human; conditions: U251; 48 h SRB; Table 1, Table 2 (FIG. 64), FIG. 63
# Protocol: Cells experiencing methuosis initially undergo extreme cytoplasmic vacuolization which can be readily assessed by phase contrast microscopy. As viability is compromised (usually between 24-48 h), the cells detach from the culture surface and lose membrane integrity. […] Although methuosis can occur in a broad spectrum of human tumor cell lines, SAR studies were carried out with U251 glioblastoma cells. Therefore, this cell line was used in the present evaluation.
# Total protein in adherent cells was measured by the sulforhodamine B (SRB) colorimetric assay, following standard procedures for anticancer drug screening used by the U.S. National Cancer Institute. […] On the day after plating, four wells were assayed to establish a pre-drug (time-0) baseline. Test compounds were diluted as described above and added to the remaining wells. The medium and compounds were replenished after 24 hr. SRB assays were performed at a 48 h endpoint as described, using a SpectraMax Plus 384 plate reader (Molecular Devices, Sunnyvale, Calif.) to determine absorbance at 515 nm.
# Cells were seeded in 96-well plates as described in the methods. After 24 h, each compound was added at the indicated concentrations and SRB assays were performed after an additional 48 h. Each point represents the mean±SD of values from four wells. The dotted line on each graph indicates the average absorbance of four wells sampled at time-0 (i.e., the time that the compounds were added).
# The human U251 glioblastoma cell line was obtained from the DCT Tumor Repository (National Cancer Institute, Fredrick, Md.). […] All test compounds were dissolved in DMSO and serially diluted in DMSO so that the desired final drug concentrations could be achieved by making a 1/1000 dilution into the culture medium. One day after plating, four wells were assayed to establish a pre-drug (time-0) baseline. At the same time, fresh medium containing test compounds was added to the remaining wells. Control wells received DMSO alone. SRB assays were performed at a 48 h endpoint. To minimize the impact of potential variations in stability among the compounds, medium with test compound was replenished after the first 24 h.
# U251 glioblastoma cells [5] = assay: Classification by cellular phenotype induced in cultured cells; type: cell-based, human; conditions: FIG. 72
# [6] = Stability on storage in DMSO (1H NMR); type: physicochemical
# Source text: Derivatives substituted with hydroxyl-functionality were synthesized based upon the results obtained in previous SAR studies for 2-substituted indole. Subtle chemical modifications at this position can alter activity, and are sensitive to both steric and electronic properties. […] Previously prepared intermediate ethyl 5-methoxyindole-2-carboxylate (302) was reduced by LAH to 425, which was then protected by acetylating the primary hydroxyl group (426). The acetyl group was then hydrolyzed during the alkaline conditions used to quench the acidic reagents generated during Vilsmeier's step that produce aldehyde 427. […] Alcohol 425 was oxidized to 5-methoxyindole-2-carboxaldehyde (428) by MnO2 in EtOAc heated to reflux. The aldehyde was subjected toWittig conditions using phosphonium ylide (Ph3CHCO2C2H5) to produce the α,β-unsaturated ester 429, which was reduced to 2-hydroxypropylindole 430 using excess LAH. The primary hydroxyl group was protected as the O-acetate (431) under conditions of excess acetic anhydride, TEA and CH3CN. […] As anticipated, the O-acetyl group was hydrolyzed under these conditions.
# 5-Methoxy-2-hydroxymethylindole-3-carboxaldehyde 427 (75 mg, 0.37 mmol), 4-acetylpyridine (118 mg, […]), and piperidine (82.6 mg, […]) were dissolved in methanol (1 mL) and heated to reflux. The reaction mixture was stirred for 45 min during which the solution became bright orange. The flask was then removed from heat and allowed to stir for 1 h. A precipitate formed which was collected, washed with ice-cold MeOH (5 mL) and dried in a vacuum desiccator for 24 h to yield an orange solid (28 mg, 24%). mp 229-230° C. TLC Rf 0.65 (6% MeOH/DCM), 0.21 (80% EtOAc/hexanes). […] 13C NMR (150 MHz, d6-DMSO) δ 188.2, 155.2, 150.6, 148.0, 145.0, 139.3, 131.0, 126.7, 121.4, 113.8, 113.0, 111.6, 108.3, 103.4, 55.57, 55.32. Elemental analysis calculated for C18H16N2O3.0.033 MeOH: C, 70.00; H, 5.26; N, 9.05. Found: C, 69.61; H, 5.09; N, 8.90. […] When stored in its isolated precipitate form, this compound is stable.
# [7] = Stability during workup, manipulation or storage; type: physicochemical; conditions: among ester series 120, 125, 310, 309
# Protocol: Expanding previous SAR studies of 2-indolyl alkyl substitutions, additional functionalized probes were prepared as depicted in Schemes 4-7. […] Excellent regioselectivity was achieved by the di-lithio species derived from 418 and sec-butyllithium in THF at −40° C. Cyclization and deprotection occurred in a one-pot fashion with excess TFA affording 5-methoxy-2-trifluoromethylindole (203). Synthesis of aldehyde 204 and condensation to the final trifluoromethyl target 124 were accomplished by standard methods. Alkyl carboxylates (301-304) were synthesized from commercially available acid 300 by Fisher esterification conditions using their corresponding alcohols (Scheme 4E, FIG. 78). Formylation reactions to yield aldehydes 305-308, followed by Claisen-Schmidt condensation to provide 120, 125, 310, 309, were conducted as previously described. […] Without wishing to be bound by theory, it is believed this is owing to its better leaving group among this series.
# T1 sequence (P02550 whole entry): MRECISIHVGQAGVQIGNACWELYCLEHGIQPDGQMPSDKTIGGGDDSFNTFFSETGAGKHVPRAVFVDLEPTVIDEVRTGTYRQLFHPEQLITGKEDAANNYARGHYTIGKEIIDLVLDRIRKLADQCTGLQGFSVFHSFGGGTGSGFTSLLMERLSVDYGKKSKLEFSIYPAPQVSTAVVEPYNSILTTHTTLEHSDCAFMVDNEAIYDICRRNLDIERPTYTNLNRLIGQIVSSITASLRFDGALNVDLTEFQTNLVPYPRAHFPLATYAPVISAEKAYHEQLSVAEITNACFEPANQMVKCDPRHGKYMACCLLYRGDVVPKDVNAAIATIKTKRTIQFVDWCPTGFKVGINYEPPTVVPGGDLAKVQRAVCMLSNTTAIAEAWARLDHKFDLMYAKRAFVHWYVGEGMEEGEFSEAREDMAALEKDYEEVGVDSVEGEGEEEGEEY
# T1 sequence (P02554 whole entry): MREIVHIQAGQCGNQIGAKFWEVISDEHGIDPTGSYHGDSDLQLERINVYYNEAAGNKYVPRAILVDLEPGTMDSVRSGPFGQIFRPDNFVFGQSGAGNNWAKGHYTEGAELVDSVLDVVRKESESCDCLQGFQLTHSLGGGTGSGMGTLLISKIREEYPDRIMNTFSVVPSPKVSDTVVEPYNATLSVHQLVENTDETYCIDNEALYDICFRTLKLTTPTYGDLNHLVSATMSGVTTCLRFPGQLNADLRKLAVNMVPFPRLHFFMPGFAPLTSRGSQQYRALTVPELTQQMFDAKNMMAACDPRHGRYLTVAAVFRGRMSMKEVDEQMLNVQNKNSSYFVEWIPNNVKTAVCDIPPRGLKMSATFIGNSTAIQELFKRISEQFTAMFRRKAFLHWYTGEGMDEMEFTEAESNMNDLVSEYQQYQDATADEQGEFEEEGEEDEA
compound,measurement,setting,value
CCCCC[C@@H](O)[C@H]1C(=O)O[C@H](C)[C@@H](O)/C=C/C=C/C=C/C=C/C=C(\C)[C@@H](O)C[C@H](O)C[C@H](O)C[C@H](O)C[C@H](O)C[C@H](O)C[C@@H]1O [filipin],effect on induction of vacuoles by MIPP,U251 glioblastoma cells [1],failed to show the typical morphological response to MIPP
"CN[C@H]1CCc2cc(OC)c(OC)c(OC)c2-c2ccc(OC)c(=O)cc21 [colcemid, reference compound]","cell cycle distribution (G2/M, sub-G1/G0)",U251 glioblastoma cells [2],significantly decreased compared to the DMSO control (p≦0.05)
"COc1ccc2[nH]c(C)c(/C=C/C(=O)c3ccncc3)c2c1 [MOMIPP, trans-3-(5-methoxy-2-methyl-1H-indol-3-yl)-1-(4-pyridinyl)-2-propen-1-one]",inhibition of tubulin polymerization,porcine tubulin,superimposable with the DMSO control
3-(2-hydroxypropyl-5-methoxy-indole-3-yl)-1-(4-pyridinyl)-2-propen-1-one [402q],cell morphology / vacuolization,U251 glioblastoma cells [3],"extensive accumulation of large cytoplasmic vacuoles, with loss of viable adherent cells at concentrations >2.5 μM"
same,"growth inhibitory (GI) activity, in words",U251 glioblastoma cells [4],GI values in the low micromolar range
same,class of cellular phenotype,U251 glioblastoma cells [5],Class 2
"COc1ccc2[nH]c(C(=O)[O-])c(/C=C/C(=O)c3ccncc3)c2c1.[Na+] [402o, sodium trans-3-(5-methoxyindol-2-carboxylate-3-yl)-1-(4-pyridinyl)-2-propen-1-one]","growth inhibitory (GI) activity, in words",U251 glioblastoma cells [4],either markedly attenuated or completely eliminated
same,"cell cycle distribution (G2/M, sub-G1/G0)",U251 glioblastoma cells [2],no detectable effect on cell cycle distribution
O=c1cc(CN2CCOCC2)occ1OCCCCCSc1ccnc2cc(C(F)(F)F)ccc12 [EHT 1864],effect on induction of vacuoles by MIPP,U251 glioblastoma cells [1],no detectable effect on vacuole formation
"CO/C1=C\C(C)=C\[C@@H](C)[C@@H](O)[C@@H](C)C/C(C)=C/C=C/[C@H](OC)[C@@H]([C@@H](C)[C@@H](O)[C@H](C)[C@@]2(O)C[C@@H](O)[C@H](C)[C@@H](C(C)C)O2)OC1=O [Baf-A, bafilomycin A1]",effect on induction of vacuoles by MIPP,U251 glioblastoma cells [1],completely abrogated the ability of the cells to generate vacuoles when they were exposed to MIPP
"COc1ccc2[nH]c(CO)c(C=CC(=O)c3ccncc3)c2c1 [402p, 3-(2-hydroxymethyl-5-methoxy-1H-indole-3-yl)-1-(4-pyridinyl)-2-propen-1-one]","stability in DMSO, in words",[6]; storage in DMSO,unstable when stored at rt in DMSO for 48 h
same,degraded,"[6]; stored in d6-DMSO, after 48 h, 1H NMR",~50%
same,stability as isolated precipitate,[6]; stored in its isolated precipitate form,stable
"CCOC(=O)c1[nH]c2ccc(OC)cc2c1/C=C/C(=O)c1ccncc1 [compound 125, ethyl trans-3-(5-methoxyindol-2-carboxylate-3-yl)-1-(4-pyridinyl)-2-propen-1-one]",inhibition of tubulin polymerization,porcine tubulin,partially inhibited tubulin polymerization
"COc1ccc2[nH]c(C(F)(F)F)c(/C=C/C(=O)c3ccncc3)c2c1 [compound 124, trans-3-(5-methoxyindol-2-trifluoromethyl-3-yl)-1-(4-pyridinyl)-2-propen-1-one]",inhibition of tubulin polymerization,porcine tubulin,partially inhibited tubulin polymerization
"COc1ccc2[nH]c(C(=O)OC(C)C)c(/C=C/C(=O)c3ccncc3)c2c1 [compound 309, isopropyl trans-3-(5-methoxyindol-2-carboxylate-3-yl)-1-(4-pyridinyl)-2-propen-1-one]",sensitivity to hydrolysis,[7],most sensitive to hydrolysis during workup and subsequent manipulation or storage
